# Data published in paper PMC3486884 (PLoS Pathogens, 2012).
# “And” between values parts separate entries of the source, which are not always exact repeats. Identical values can stand only once. Like-named read-outs stand apart in the source and are kept apart here.
# Key:
# [1] = system: hepatitis C virus; settings: cited from earlier work
# [2] = system: CVB4; experiment: microbe, parasite or virus in culture; settings: Enterovirus B, CVB4, HeLa, read-out: IC50 (CVB4)
# [3] = system: HSV1
# [4] = pKa and log P quoted from the literature; type: physicochemical; settings: pH 7.4
# [5] = system: HRV1A, 2, 14, 16; experiment: Infection assays with the HRV panel in HeLa cells; type: cell-based, human rhinovirus
# [6] = system: rats; settings: cited from earlier work
# [7] = system: CVA21
# [8] = system: HRV1A; experiment: microbe, parasite or virus in culture; settings: Human rhinovirus sp.
# [9] = system: HRV14
# [10] = system: influenza virus (strain A/Puerto Rico/8/34/H1N1 depicted PR8)
# [11] = system: clathrin-coated vesicles (CCV); experiment: Acridine orange measurements in clathrin-coated vesicles; settings: AO red fluorescence assay
# Experimental: CCV suspended in assay buffer (10 mM HEPES, pH7, 100 mM KCl, 1 mM EDTA) were incubated with 1 mM ATP, 2 µM AO (Molecular Probes). The ATPase reaction was initiated by adding MgCl2 to 1 mM and fluorescence was determined at 492/540 nm in a plate reader (Tecan, Männedorf, Switzerland) at room temperature after 10 min. BafA1 and samples without MgCl2 were used as controls.
# [12] = system: HRV2; experiment: microbe, parasite or virus in culture; settings: Human rhinovirus sp., HRV2, HeLa, read-out: IC50 (HRV2)
# [13] = system: influenza virus (strain A/Puerto Rico/8/34/H1N1 depicted PR8); experiment: microbe, parasite or virus in culture; settings: unidentified influenza virus, A549, read-out: IC50 (PR8)
# [14] = system: CVA21; experiment: microbe, parasite or virus in culture; settings: Coxsackievirus, CVA21, HeLa, read-out: IC50 (CVA21)
# [15] = Liposome dextran-FITC de-quenching; settings: read-out: FITC-fluorescence dequenching, half maximal efficacy; liposomes loaded at pH 5.15 with dextran-FITC
# Experimental: Liposomes from soy phosphatidyl-choline were prepared in 100 mM acetate pH 5.15 containing 1 mM 4.4 kDa FITC-dextran using standard extrusion protocols yielding vesicles of an average size of 200 nm measured using a particle size analyzer (Nicomp 370, Nicomp, Port Richey, FL, USA). Non-encapsulated FITC-dextran was removed by size exclusion chromatography in a G25 column (Pharmacia) followed by extensive dialysis against 100 mM acetate pH 5.15 in a Floatalyzer with 50 kDa cut-off (Spectrumlabs). To measure fluorescence de-quenching FITC-dextran containing liposomes were diluted in PBS at 20–60 µg/ml, incubated with the respective compounds at room temperature and analysed for fluorescence using a plate reader (TECAN Safire II) with fluorescence TOP measurement settings at excitation of 483/10 nm and emission of 525/15 nm wavelength within 15 min. Control measurements of samples containing PBS, Triton X-100 or the compounds alone were carried out to measure background, maximal readout of the assay and auto-fluorescence of compounds. The data were normalized to the PBS control and background fluorescence was subtracted.
# [16] = system: CVB3; experiment: microbe, parasite or virus in culture; settings: Enterovirus B, CVB3, HeLa, read-out: IC50 (CVB3)
# [17] = system: HRV2
# [18] = system: CVB3
# [19] = system: HRV1A; experiment: Full cycle infectivity assay (virus titer, TCID50); type: cell-based, human rhinovirus; settings: full cycle assays; BafA1 (0.5 nM), alone or drug combination
# [20] = system: HRV1A; experiment: HRV1A infection of WI-38 human embryonic diploid airway cells; type: cell-based; settings: Human rhinovirus sp.
# Experimental: A single cell high-content, image based infection assay was applied to measure infection in high throughput format. Viruses were added to cells in infection medium containing BSA (DMEM containing 25 mM HEPES if used outside of a CO2 cell culture incubator, supplemented with L-glutamine, 30 mM MgCl2 and 0.2% BSA (Sigma) for CV and HRV), or in infection medium containing trypsin-TPCK (DMEM supplemented with L-glutamine and TPCK-trypsin 1 µg/ml (Sigma) for FLU/PR8) and normal growth media for HSV. For all experiments, the multiplicity of infection (moi) was chosen such that approximately 20–40% of the cells were infected at 7 h post infection (pi) (HRV &CV), 8 h pi (FLU) or 18 h pi (HSV). Cells were fixed by adding 1/3 volume of a 16% para-formaldehyde solution, washed with PBS, PBS/25 mM NH4Cl and PBS, permeabilized with 0.2% Triton X-100 (Sigma), washed twice with PBS and blocked with PBS/1% BSA (Fraction V, Sigma). […] Routinely, 9–20 images per well were acquired yielding an average of 5000–12000 cells analysed per well and data point. […] Images were analyzed using a custom written Matlab routine. […]
# Compounds were dissolved in dimethyl sulfoxid (DMSO, cell culture grade, Sigma) and added to cells in dilutions indicated with respective concentrations of solvent alone as controls. […] Infection was quantified by immune-staining for dsRNA. […]
# [21] = system: CVB4
# [22] = system: HRV16; experiment: microbe, parasite or virus in culture; settings: Human rhinovirus sp., HRV16, HeLa, read-out: IC50 (HRV16)
# [23] = cited from earlier work
# [24] = system: HSV1; experiment: microbe, parasite or virus in culture; settings: Human alphaherpesvirus 1, read-out: IC50 (HSV1)
# [25] = system: HRV14; experiment: microbe, parasite or virus in culture; settings: Human rhinovirus sp., HRV14, HeLa, read-out: IC50 (HRV14)
# [26] = system: HRV16
# [27] = target: v-ATPase (Bos taurus, UniProt P23956); experiment: v-ATPase inhibition assay (Pi production in clathrin-coated vesicles); settings: bovine brain clathrin-coated vesicles
# Experimental: Cow brain CCV were prepared as described [59], diluted in assay buffer (200 mM sucrose, 50 mM KCl, 10 mM HEPES pH7, 1 mM EDTA, 5 µM nigericin, 10 µg/ml oligomycin, 1 mM vanadate) and incubated with the respective compounds at 4°C for 30 min. ATP (10 µl 2 mM ATP and 40 mM MgCl2) were added and the samples incubated at 37°C for 15 min. Production of inorganic phosphate (Pi) was measured with the Sensolyte MG phosphate assay kit according to the manufacturers protocols (AnaSpec).
compound,measurement,setting,value
CCN(CC)CCCC(C)Nc1ccnc2cc(Cl)ccc12 (stereo not drawn) [chloroquine],IC90,[1],20 µM
"O=C(Nc1ccc([N+](=O)[O-])cc1Cl)c1cc(Cl)ccc1O [niclosamide, 5-chloro-N-(2-chloro-4-nitrophenyl)-2-hydroxybenzamide, reference compound]",IC50,[2],3.88 µM
same,"TI (IC50 / CC50), HSV1",[3],1.37
same,molecules in the deprotonated form,[4],about 99%
same,IC50,"[5]; Human rhinovirus sp., HRV1A, HeLa, read-out: IC50 (range over HRV1A, 2, 14, 16)",0.84 to 1.4 µM
same,effect of drug washout on the antiviral effect,"[5]; cells pre-treated 30 min or 18 h, washed with drug-free medium",completely abolished the antiviral effect
same,time of addition giving half maximal effects,[5]; compound added before or post infection of HeLa cells with HRV,≤ 30 min pi
same,effect of virus pre-treatment on the inhibition profile,[5]; viruses pre-treated at up to 400 µM at 37°C for 30 min,did not affect the inhibition profile
same,acute oral toxicity LD50,[6],> 5 g/kg body weight
same,"TI (IC50 / CC50), CVA21",[7],3.06
same,IC50,"[8]; HeLa, read-out: IC50 (HRV1A)",1.04 µM
same,activity at 0.03 µM,"[8]; M-HeLa, 7 h, read-out: HRV1A infection (dsRNA), 0.03 µM",98%
same,activity at 0.1 µM,"[8]; M-HeLa, 7 h, read-out: HRV1A infection (dsRNA), 0.10 µM",96%
same,activity at 0.31 µM,"[8]; M-HeLa, 7 h, read-out: HRV1A infection (dsRNA), 0.31 µM",90%
same,activity at 0.93 µM,"[8]; M-HeLa, 7 h, read-out: HRV1A infection (dsRNA), 0.93 µM",39%
same,activity at 2.78 µM,"[8]; M-HeLa, 7 h, read-out: HRV1A infection (dsRNA), 2.78 µM",4%
same,activity at 8.33 µM,"[8]; M-HeLa, 7 h, read-out: HRV1A infection (dsRNA), 8.33 µM",5%
same,activity at 25 µM,"[8]; M-HeLa, 7 h, read-out: HRV1A infection (dsRNA), 25.00 µM",4%
same,"TI (IC50 / CC50), HRV14",[9],24.1
same,"TI (IC50 / CC50), PR8",[10],24.4
same,pH of isolated CCV,[11],neutralized the pH of CCV in a dose-dependent manner
same,IC50,[12],1.01 µM
same,IC50,[13],0.83 µM
same,IC50,[14],6.63 µM
same,EC50,[15],14 µM
same,IC50,[16],> 50 µM
same,"TI (IC50 / CC50), HRV2",[17],20.1
same,"TI (IC50 / CC50), CVB3",[18],< 0.4
same,decrease of virus titers,[19],about five-fold
same,IC50,[20],1.3 µM
same,"TI (IC50 / CC50), CVB4",[21],5.22
same,IC50,[22],1.38 µM
same,log P,[23]; pH 5.7,5.63
same,log P,[23]; pH 7,4.48
same,IC50,[24],> 10 µM and 14.8 µM
same,IC50,[25],0.84 µM
same,"TI (IC50 / CC50), HRV16",[26],14.7
C/C=C/[C@H]1O[C@@](O)([C@@H](C)[C@H](O)[C@H](C)[C@H]2OC(=O)/C(OC)=C/C(C)=C/[C@@H](C)[C@@H](O)[C@@H](CC)[C@@H](O)[C@H](C)C/C(C)=C/C=C/[C@@H]2OC)C[C@@H](O[C@H]2C[C@@H](O)[C@H](OC(N)=O)[C@@H](C)O2)[C@@H]1C [concanamycin A],pH of isolated CCV,[11],neutralized the pH of CCV in a dose-dependent manner
same,"v-ATPase activity (ATP hydrolysis, production of Pi)",[27],completely blocked the production of Pi
"CO/C1=C\C(C)=C\[C@@H](C)[C@@H](O)[C@@H](C)C/C(C)=C/C=C/[C@H](OC)[C@@H]([C@@H](C)[C@@H](O)[C@H](C)[C@@]2(O)C[C@@H](O)[C@H](C)[C@@H](C(C)C)O2)OC1=O [BafA1, bafilomycin A1]",pH of isolated CCV,[11],neutralized the pH of CCV in a dose-dependent manner
same,decrease of virus titers,[19],about five-fold
same,"v-ATPase activity (ATP hydrolysis, production of Pi)",[27],completely blocked the production of Pi
